# From patent publication US6541477B2, “Inhibitors of p38-a kinase” (Scios, Inc., priority 1999, dated 2003)
# Key:
# [1] = biological target: T1, p38-α kinase (Homo sapiens, UniProt Q16539); settings: 15 μM compound
# [2] = Molar refraction (MR) of the ortho substituent as a measure of its size; type: physicochemical; settings: as described by Hansch, J Med Chem 1973
# Procedure: The molar refraction values for the ortho derivatives containing chloro, bromo and methoxy substituents were determined as a measure of the size of the substituent as described by Hansch, C. et al., J Med Chem (1973) 16:1207-1216. A linear correlation between the MR values and percent inhibition of p38α at 200 nM concentrations of the compounds was obtained. […] Thus, it appears that the ability to inhibit p38α kinase is dependent on the size of the ortho substituent. While not intending to be bound by any theory, applicants believe that the bulkier substituents rotate the aroyl moiety out of the plane of the piperidine or piperazine ring.
# [3] = biological target: T1, p38-α kinase; assay: biochemical; settings: for inhibition at 15 µM: read-out: % Inhibition of p38α kinase at 15 μM; for inhibition at 0.2 µM: read-out: percent inhibition of p38α at 200 nM
# T1 sequence (Q16539 whole entry): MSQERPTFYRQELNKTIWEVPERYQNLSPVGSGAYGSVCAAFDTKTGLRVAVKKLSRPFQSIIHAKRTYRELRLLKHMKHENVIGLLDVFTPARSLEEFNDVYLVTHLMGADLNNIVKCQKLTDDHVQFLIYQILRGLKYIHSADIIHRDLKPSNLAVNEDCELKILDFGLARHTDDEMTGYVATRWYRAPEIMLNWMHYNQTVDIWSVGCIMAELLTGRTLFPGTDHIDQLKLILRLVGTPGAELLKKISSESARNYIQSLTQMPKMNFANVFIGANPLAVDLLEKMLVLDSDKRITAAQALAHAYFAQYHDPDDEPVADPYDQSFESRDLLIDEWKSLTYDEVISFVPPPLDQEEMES
% Inhibition of p38α kinase at 15 μM [1] [%],other results,SMILES
90,–,Cc1cccc(C(=O)N2CCC(Cc3ccccc3)CC2)c1 [meta-methyl]
66,–,O=C(c1ccc(C(F)(F)F)cc1)N1CCC(Cc2ccccc2)CC1 [para-CF3]
96,–,O=C(c1ccc(Br)cc1)N1CCC(Cc2ccccc2)CC1 [para-Br]
–,MR value (molar refraction) [2]: about 8,"COc1ccccc1C(=O)N1CCC(Cc2ccccc2)CC1 [compound 10, 1-(2-methoxybenzoyl)-4-benzyl piperidine]"
85,–,O=C(c1ccc(Cl)cc1)N1CCC(Cc2ccccc2)CC1 [para-Cl]
–,inhibition at 15 µM [3]: 98%,"Cc1ccccc1C(=O)N1CCC(Cc2ccccc2)CC1 [compound 11, 1-(2-methylbenzoyl)-4-benzyl piperidine]"
74,–,O=C(c1cccc(Br)c1)N1CCC(Cc2ccccc2)CC1 [meta-Br]
97,–,Cc1ccc(C(=O)N2CCC(Cc3ccccc3)CC2)cc1 [para-methyl]
92,–,O=C(c1cccc(F)c1)N1CCC(Cc2ccccc2)CC1 [meta-F]
94,–,O=C(c1ccc(F)cc1)N1CCC(Cc2ccccc2)CC1 [para-F]
–,IC50 [3]: 605 nM,"COc1ccc(C(=O)N2CCC(Cc3ccccc3)CC2)cc1 [compound 2, 1-(4-methoxybenzoyl)-4-benzyl piperidine]"
–,inhibition at 15 µM [3]: 99%; inhibition at 0.2 µM [3]: 52%; MR value (molar refraction) [2]: about 6,"O=C(c1ccccc1Cl)N1CCC(Cc2ccccc2)CC1 [compound 7, 1-(2-chlorobenzoyl)-4-benzyl piperidine]"
80,–,O=C(c1cccc(Cl)c1)N1CCC(Cc2ccccc2)CC1 [meta-Cl]
98,–,O=C(c1ccccc1F)N1CCC(Cc2ccccc2)CC1 [ortho-F]
–,inhibition at 15 µM [3]: 99%; inhibition at 0.2 µM [3]: 72%; MR value (molar refraction) [2]: approximately 9,"O=C(c1ccccc1Br)N1CCC(Cc2ccccc2)CC1 [compound 8, 1-(2-bromobenzoyl)-4-benzyl piperidine]"
49,–,O=C(c1cccc(C(F)(F)F)c1)N1CCC(Cc2ccccc2)CC1 [meta-CF3]
98,–,O=C(c1ccccc1C(F)(F)F)N1CCC(Cc2ccccc2)CC1 [ortho-CF3]
–,IC50 [3]: 1100 nM,"COc1cccc(C(=O)N2CCC(Cc3ccccc3)CC2)c1 [compound 5, 1-(3-methoxybenzoyl)-4-benzyl piperidine]"
